# Target: T1, Kv7.2/7.3 (Homo sapiens, UniProt O43525+O43526)
# Experiment: Kv7.2/7.3 Activation Assay, QPatch single concentration screen
# Type: cell-based
# Set-up: host or cells: HEK cells, tetracycline-inducible expression; key: 1.2-2.9 (+); 3-3.9 (++); >4 (+++) fold increase over baseline; O represents open channel at holding potential
# Details: Kv7.2/Kv7.3 co-expressing HEK cells, compound concentration 3 μM, steady-state current at end of 2 s pulse to −30 mV
# Procedure, shortened: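 Tetracycline-induced HEK cells expressing human Kv7.2/7.3, recorded 24 h post-induction by automated planar patch clamp. From −80 mV, 2 s steps to −30 mV then 100 ms to −120 mV; compound tested at 3 μM (0.1% DMSO). Steady-state current at end of −30 mV step gives fold increase over baseline.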
row,SMILES,Kv7.2/7.3 Activity: increase over baseline in current
1,"CN(C)c1ccc2nc(NC(=O)CC(C)(C)C)n(C3CCC3)c2c1F [Example 454, N-(1-cyclobutyl-6-(dimethylamino)-7-fluoro-1H-benzo[d]imidazol-2-yl)-3,3-dimethylbutanamide]",+++ (>4 (+++) fold increase over baseline)
2,"C[C@H](C(=O)Nc1nc2ccc(C(C)(C)O)cc2n1C12CC(C1)C2)C(C)(C)C [Example 455, (S)-N-(1-(bicyclo[1.1.1]pentan-1-yl)-6-(2-hydroxypropan-2-yl)-1H-benzo[d]imidazol-2-yl)-2,3,3-trimethylbutanamide]",++ (3-3.9 (++))
3,"CC(C)(O)c1cc(F)c2nc(NC(=O)CC(C)(C)C(F)F)n(C3CCC3)c2c1 [Example 456, N-(1-cyclobutyl-4-fluoro-6-(2-hydroxypropan-2-yl)-1H-benzo[d]imidazol-2-yl)-4,4-difluoro-3,3-dimethylbutanamide]",++ (3-3.9 (++))
4,"CC(C)(C)CC(=O)Nc1nc2c(F)cc(C#N)c(F)c2n1C(C)(C)C [Example 457, N-(1-(tert-butyl)-6-cyano-4,7-difluoro-1H-benzo[d]imidazol-2-yl)-3,3-dimethylbutanamide]",++ (3-3.9 (++))
5,"COc1cccc2nc(NC(=O)CC(C)(C)C3CC3)n(C3CCC3)c12 [Example 458, N-(1-cyclobutyl-7-methoxy-1H-benzo[d]imidazol-2-yl)-3-cyclopropyl-3-methylbutanamide]",+++ (>4 (+++) fold increase over baseline)
6,"CC(C)(C)CC(=O)Nc1nc2c(F)cc(OC(F)F)cc2n1C1(C)CCC1 [Example 459, N-(6-(difluoromethoxy)-4-fluoro-1-(1-methylcyclobutyl)-1H-benzo[d]imidazol-2-yl)-3,3-dimethylbutanamide]",+++ (>4 (+++) fold increase over baseline)
7,"CC1(n2c(NC(=O)CC(C)(C)C(F)(F)F)nc3c(F)cc(OC(F)F)cc32)CCC1 [Example 461, N-(6-(difluoromethoxy)-4-fluoro-1-(1-methylcyclobutyl)-1H-benzo[d]imidazol-2-yl)-4,4,4-trifluoro-3,3-dimethylbutanamide]",+ (1.2-2.9 (+))
8,"CC(C)(CC(=O)Nc1nc2c(F)cc(C#N)c(F)c2n1C1CCC1)C1CC1 [Example 464, N-(6-cyano-1-cyclobutyl-4,7-difluoro-1H-benzo[d]imidazol-2-yl)-3-cyclopropyl-3-methylbutanamide]",++ (3-3.9 (++))
9,"COc1cc(F)c2nc(NC(=O)CC(C)(C)C)n(C3CCC3)c2c1 [Example 469, N-(1-cyclobutyl-4-fluoro-6-methoxy-1H-benzo[d]imidazol-2-yl)-3,3-dimethylbutanamide]",+++ (>4 (+++) fold increase over baseline)
10,"CC(C)(O)c1c(F)cc2nc(NC(=O)CC(C)(C)C(F)(F)F)n(C3CCC3)c2c1F [Example 470, N-(1-cyclobutyl-5,7-difluoro-6-(2-hydroxypropan-2-yl)-1H-benzo[d]imidazol-2-yl)-4,4,4-trifluoro-3,3-dimethylbutanamide]",+ (1.2-2.9 (+))
11,"CC(C)(O)c1ccc2nc(NC(=O)CC(C)(C)C3CC3)n(C34CC(C3)C4)c2c1 [Example 472, N-(1-(bicyclo[1.1.1]pentan-1-yl)-6-(2-hydroxypropan-2-yl)-1H-benzo[d]imidazol-2-yl)-3-cyclopropyl-3-methylbutanamide]",+++ (>4 (+++) fold increase over baseline)
12,"CC(C)(C)CC(=O)Nc1nc2cccc(C#N)c2n1C1(C)CCC1 [Example 473, N-(7-cyano-1-(1-methylcyclobutyl)-1H-benzo[d]imidazol-2-yl)-3,3-dimethylbutanamide]",++ (3-3.9 (++))
13,"CC1(CC(=O)Nc2nc3c(F)cc(C(C)(C)O)cc3n2C2(C)CCC2)CC1 [Example 474, N-(4-fluoro-6-(2-hydroxypropan-2-yl)-1-(1-methylcyclobutyl)-1H-benzo[d]imidazol-2-yl)-2-(1-methylcyclopropyl)acetamide]",O
14,"CC(C)(C)CC(=O)Nc1nc2ccc(N3CC(F)(F)C3)c(F)c2n1C1CCC1 [Example 475, N-(1-cyclobutyl-6-(3,3-difluoroazetidin-1-yl)-7-fluoro-1H-benzo[d]imidazol-2-yl)-3,3-dimethylbutanamide]",++ (3-3.9 (++))
15,"COc1cccc2nc(NC(=O)CC(C)(C)C)n(C3CCC3)c12 [Example 476, N-(1-cyclobutyl-7-methoxy-1H-benzo[d]imidazol-2-yl)-3,3-dimethylbutanamide]",+ (1.2-2.9 (+))
16,"CC(C)(C)CC(=O)Nc1nc2c(C(F)(F)F)cc(Br)cc2n1C1CCC1 [Example 477, N-(6-bromo-1-cyclobutyl-4-(trifluoromethyl)-1H-benzo[d]imidazol-2-yl)-3,3-dimethylbutanamide]",+++ (>4 (+++) fold increase over baseline)
17,"CC(C)(CC(=O)Nc1nc2c(F)cc(C#N)cc2n1C(C)(C)C)C1CC1 [Example 482, N-(1-(tert-butyl)-6-cyano-4-fluoro-1H-benzo[d]imidazol-2-yl)-3-cyclopropyl-3-methylbutanamide]",+++ (>4 (+++) fold increase over baseline)

# Second part, the molecule after the results:
row,Kv7.2/7.3 Activity: increase over baseline in current,SMILES
1,++ (3-3.9 (++)),"CC(C)(C)CC(=O)Nc1nc2c(F)cc(C(O)(CF)CF)cc2n1C1CCC1 [Example 479, N-(1-cyclobutyl-6-(1,3-difluoro-2-hydroxypropan-2-yl)-4-fluoro-1H-benzo[d]imidazol-2-yl)-3,3-dimethylbutanamide]"
2,O,"CC(CF)(CF)CC(=O)Nc1nc2c(F)cc(C(C)(C)O)cc2n1C1(C)CCC1 [Example 480, 4-fluoro-N-(4-fluoro-6-(2-hydroxypropan-2-yl)-1-(1-methylcyclobutyl)-1H-benzo[d]imidazol-2-yl)-3-(fluoromethyl)-3-methylbutanamide]"
3,O,"CC(C)(C)CC(=O)Nc1nc2ccc(C(C)(C)O)c(F)c2n1C1(C)CCC1 [Example 481, N-(7-fluoro-6-(2-hydroxypropan-2-yl)-1-(1-methylcyclobutyl)-1H-benzo[d]imidazol-2-yl)-3,3-dimethylbutanamide]"
4,+ (1.2-2.9 (+)),"CC(C)(CC(=O)Nc1nc2ccc(C#N)cc2n1C(C)(C)C(F)(F)F)C(F)(F)F [Example 484, N-(6-cyano-1-(1,1,1-trifluoro-2-methylpropan-2-yl)-1H-benzo[d]imidazol-2-yl)-4,4,4-trifluoro-3,3-dimethylbutanamide]"

# Target: T1, Kv7.2/7.3
# Experiment: Kv7.2/7.3 Thallium Flux Assay
# Type: cell-based
# Set-up: host or cells: HEK cells, tetracycline-inducible expression
# Details: read-out: Kv7.2/7.3 Activity: EC50 of Kv7.2/Kv7.3 activation
# Excerpt: The Thallium Flux Assay is used as a surrogate indicator of potassium channel activity.
# The experimental protocol was adapted from the FluxOR™ II Green Potassium Ion Channel Assay User Guide (Pub. No. MAN0016084, Invitrogen). Conditions were optimized for the Kv7.2/7.3 cell line.
# The hKV7.2/7.3 cell line was obtained from Chantest (Cleveland, Ohio 44128) cat. #CT6147.
# Kv7.2/7.3 cells were maintained in a media containing DMEM/F12; 50/50 (GIBCO cat. #11330), 10% Fetal Bovine Serum (FBS) (GIBCO cat. #26140), 100 units/mL Penicillin-Streptomycin (GIBCO cat. #15140), 0.005 mg/ml Blasticidin (SIGMA 15205), 0.5 mg/mL Geneticin (GIBCO cat. #10131), and 0.1 mg/mL Zeocin (GIBCO cat. #R25001). One day prior to experimentation, cells were plated in 96 well clear bottom plates (Corning cat. #353219) in a media without Blasticidin, Geneticin, or Zeocin. Channel expression was induced by adding tetracycline (Bioline cat. #BIO87030) at a final concentration of 10 ng/mL.
# The test compound is diluted in a mixture of 0.1% DMSO/extracellular solution with an eight-point concentration range from 0.014 μM to 30 μM. Serial dilutions were made on a Biomek NXP (BECKMAN COULTER).
# Measurement and Data Analysis:
# A plate reader (Enspire, Perkin Elmer) is used to characterize the ion-channel modulating properties of novel compounds using an excitation wavelength of 475 nm and an emission wavelength of 530 nm. After a 15 sec baseline measurement, the stimulus buffer containing thallium and potassium is injected. A final endpoint measure is taken after 90 sec. Responses are normalized to positive control (retigabine, 30 µM max). Mean normalized responses at each concentration tested are fit to the standard Hill equation to generate an EC50 and maximal response.
row,EC50 [µM],SMILES
1,< 1,"CC(C)(n1c(NC(=O)CC2CC(F)(F)C2(F)F)nc2ccc(C#N)cc21)C(F)(F)F (single isomer, unassigned) [Example 488, N-(6-cyano-1-(1,1,1-trifluoro-2-methylpropan-2-yl)-1H-benzo[d]imidazol-2-yl)-2-(2,2,3,3-tetrafluorocyclobutyl)acetamide]"
2,< 1,"CC(C(=O)Nc1nc2ccc(C(C)(C)O)cc2n1C1(C)CCC1)C1(C(F)(F)F)CC1 (single isomer, unassigned) [Example 489, N-(6-(2-hydroxypropan-2-yl)-1-(1-methylcyclobutyl)-1H-benzo[d]imidazol-2-yl)-2-(1-(trifluoromethyl)cyclopropyl) propanamide]"
3,< 1,"CC(C(=O)Nc1nc2ccc(C(C)(C)O)cc2n1C1(C)CCC1)C(C)(C)C(F)(F)F (single isomer, unassigned) [Example 492, 4,4,4-trifluoro-N-(6-(2-hydroxypropan-2-yl)-1-(1-methylcyclobutyl)-1H-benzo[d]imidazol-2-yl)-2,3,3-trimethylbutanamide]"
4,< 1,"CC1(n2c(NC(=O)CC3CC(F)(F)C3(F)F)nc3ccc(C#N)c(OC(F)(F)F)c32)CCC1 (single isomer, unassigned) [Example 493, N-(6-cyano-1-(1-methylcyclobutyl)-7-(trifluoromethoxy)-1H-benzo[d]imidazol-2-yl)-2-(2,2,3,3-tetrafluorocyclobutyl)acetamide]"
